Literature values as cited in patent US8846662B2, “Benzodiazepine and/or pharmaceutical composition comprising benzodiazepine derivatives” (Dr. Franz Koehler Chemie GmbH, priority 2008, dated 2014).

Tested on: specific binding sites in the central nervous system
Details: background statement

| SMILES | Affinity for specific binding sites in the central nervous system |
| --- | --- |
| O=C1Nc2ccc(Cl)cc2C(c2ccccc2Cl)=NC1O (centres unmarked) [Lorazepam, 7-chloro-5-(o-chlorophenyl)-1,3-dihydro-3-hydroxy-2H-1,4-benzodiazepin-2-one] | very high affinity |
| CN1C(=O)C(O)N=C(c2ccccc2Cl)c2cc(Cl)ccc21 (centres unmarked) [Lormetazepam, 9-chloro-6-(2-chlorophenyl)-4-hydroxy-2-methyl-2,5-diazabicyclo-[5.4.0]undeca-5,8,10,12-tetraen-3-one] | very high affinity |
